Tests used:
[1] = system: Erythroleukemia cell line; assay: Percent of murine erythroleukemia cells that became benzidine reactive after administration (2.5 uM); type: functional, Mus musculus
[2] = system: HL-60; assay: Percent of HL-60 cells (from human acute promyelocytic leukemia) to develop the ability to reduce nitroblue tetrazolium after administration (1 uM); type: functional; design: scale not given: the % may be the effect or the level left
[3] = system: T/5; assay: Tested for morphological alterations in T/5 cells after administration along with DMSO (0.1%); type: functional, cell-based; conditions: Rattus norvegicus

With `O=C(CCCCCCC(=O)Nc1ccccc1)NO` [VORINOSTAT] the Activity [1] was 70%, the Activity [2] was 21% and the Activity [3] was “No morphological alterations observed”.

Reference: ChEMBL document CHEMBL1128304, “The synthesis of N-hydroxy-N'-phenyloctanediamide and its inhibitory effect on proliferation of AXC rat prostate cancer cells” (1995)
